Read-outs that look alike come from different tables or passages of the source.
Legend:
tubulin = experiment: Tubulin polymerization assay (ability to promote polymerization of tubulin); assay type: biochemical
Text: The kit is based upon an increase in quantum yield of florescence upon binding of a fluorophore to microtubules. […] Tubulin assembly may also be monitored by light scattering which is approximated by the apparent absorption at 350 nm. In the assay, BSA is employed to prevent aggregation and glycerol, which is a tubulin polymerization enhancer, is omitted from the kit to increase the signal to noise ratio. […]

tumor cell lines = experiment: Cytotoxicity assay (AlamarBlue, monolayer); assay type: cell-based
Description: Monolayer assays with tumor cell lines (MCF-7 breast carcinoma and HT-29 colorectal carcinoma from ATCC) were carried out in triplicate in 96-well plates with PMI1640 medium containing 5% fetal bovine serum, 100 U/ml penicillin and 100 μg/ml streptomycin. […] Exponentially growing cells (5,000 MCF-7 or HT-29; 1,500 HFF) were plated in 100 μl medium and incubated overnight (5% CO2, 37° C.). Compounds (20 pM to 20 μM final concentration, 6-8 doses) and vehicle (DMSO) controls were added and the incubation was continued for an additional 72 hours. […] EC50 values were generated from dose-response curves by a 4-parameter method using Softmax PRO software, Mean FC50s (±SD) represent the average of all tests carried out for all lots of a given compound.
1. Cells: • a. Breast tumor cell lines, MCF-7 and NCI/ADR-RES • b. Colon tumor cell lines: HCT-15 and HT-29 • c. Leukemia cell line K562 and K562/R • d. Non-small cell lung cancer cell line A549 • e. Human foreskin fibroblast cells (HFF) • f. Human umbilical vein endothelial cells (HUVEC)
2. Cell Culture: • a. All tumor cells were grown in RPMI1640 medium supplemented with 5% (v/v) fetal bovine serum and the antibiotics in a final concentration of 100 U/ml of penicillin and 100 μg/ml of streptomycin in an atmosphere of 5% CO2. • b. HFF and HUVEC were grown in the medium of FGM-2 and EGM-2 from Cambrex,
3. Cytotoxicity Assay: • a. Day 1: Cells growing exponentially were transferred to 96-well tissue culture plates. All cell types were plated at a density of 1,500-5,000 cells per well in 100 μl complete medium. • b. Day 2: 100 μl of experimental compounds in complete medium was added in triplicate wells, • c. Day 5; Cell growth inhibition was assayed using the AlamarBlue (BioSource, Camarillo, Calif.) signal reduction assay. Correlation between AlamarBlue and cell proliferation has been established in the literature. Compound concentration versus relative fluorescence units was plotted.
Detailed procedures for conducting the assays are provided herein and are known in the art.

Pgp = target: T1, Pgp (Bos taurus, UniProt A0A3Q1MB23); experiment: Rhodamine 123 uptake assay in Bovine Brain Endothelial Cells (BBEC); assay type: cell-based; details: 25 micromolar; for Rhodamine 123 uptake: 45 min incubation, fluorescence normalized to protein content, average
T1 construct: Bovine Brain Endothelial Cells (BBEC) express Pgp; endogenous in cells; host or cells: Bovine Brain Endothelial Cells (BBEC)
Description: Bovine Brain Endothelial Cells (BBEC) express Pgp and are commonly used as model for Blood Brain Barrier (BBB).
All compounds and controls were run in triplicates.
The experiment was run in two 24-wells plates. […] After addition of the test compounds, cells were incubated for 45 min. After this time the drug solutions were removed by aspiration. The monolayers were then rinsed three times with ice-cold PBSG and finally solubilized with 1 mL of lysing solution for 30 min.

[1] = average %, relative to paclitaxel
[2] = average EC50, cell line not given, 72 hours incubation

T1 sequence (A0A3Q1MB23 1-1267): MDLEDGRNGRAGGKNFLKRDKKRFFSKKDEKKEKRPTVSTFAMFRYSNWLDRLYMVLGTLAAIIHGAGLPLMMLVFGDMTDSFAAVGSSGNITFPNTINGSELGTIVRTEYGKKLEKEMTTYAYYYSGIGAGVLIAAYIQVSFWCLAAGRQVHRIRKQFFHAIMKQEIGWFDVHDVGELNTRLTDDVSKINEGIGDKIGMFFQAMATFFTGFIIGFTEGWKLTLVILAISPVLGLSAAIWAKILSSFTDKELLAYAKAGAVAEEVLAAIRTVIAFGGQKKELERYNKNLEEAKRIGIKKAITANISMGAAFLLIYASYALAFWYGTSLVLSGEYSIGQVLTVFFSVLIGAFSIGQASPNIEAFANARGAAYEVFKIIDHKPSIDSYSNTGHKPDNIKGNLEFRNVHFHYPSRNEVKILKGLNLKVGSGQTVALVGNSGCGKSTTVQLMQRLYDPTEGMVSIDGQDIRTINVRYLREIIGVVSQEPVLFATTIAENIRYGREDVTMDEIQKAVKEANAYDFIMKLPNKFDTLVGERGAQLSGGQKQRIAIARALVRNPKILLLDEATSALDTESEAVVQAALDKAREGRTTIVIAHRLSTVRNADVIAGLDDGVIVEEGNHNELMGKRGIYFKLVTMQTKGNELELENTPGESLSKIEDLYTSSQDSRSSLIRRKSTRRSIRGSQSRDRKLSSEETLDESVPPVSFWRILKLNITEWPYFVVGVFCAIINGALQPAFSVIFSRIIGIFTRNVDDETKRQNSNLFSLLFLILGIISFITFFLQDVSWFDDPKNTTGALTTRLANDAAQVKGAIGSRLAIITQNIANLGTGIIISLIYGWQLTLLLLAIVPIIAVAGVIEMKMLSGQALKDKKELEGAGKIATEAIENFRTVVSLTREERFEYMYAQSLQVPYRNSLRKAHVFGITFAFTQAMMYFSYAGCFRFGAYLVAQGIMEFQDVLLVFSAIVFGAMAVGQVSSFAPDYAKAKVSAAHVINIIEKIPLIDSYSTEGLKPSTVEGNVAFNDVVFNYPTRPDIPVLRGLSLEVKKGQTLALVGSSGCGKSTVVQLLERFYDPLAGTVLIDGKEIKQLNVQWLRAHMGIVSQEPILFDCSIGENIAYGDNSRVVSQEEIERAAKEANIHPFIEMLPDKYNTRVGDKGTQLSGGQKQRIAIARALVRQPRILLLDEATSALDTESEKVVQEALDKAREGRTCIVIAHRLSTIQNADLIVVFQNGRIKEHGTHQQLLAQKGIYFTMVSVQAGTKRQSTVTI

Molecule	MPA: ability of the compound to promote polymerization of tubulin, expressed as percentage of the activity of paclitaxel (tubulin; [1])	EC50 (tumor cell lines; [2]) [nM]	other results
CC(=O)OC12COC1CC(O)C1(C)C(=O)C(OC(=O)N3CCOCC3)C3=C(C)C(OC(=O)C(O)C(NC(=O)c4ccccc4)c4ccccc4)CC(O)(C(OC(=O)c4ccccc4)C21)C3(C)C (centres unmarked) [Compound 7, PXL-10Ca-Morpholine]	–	–	MPA: ability of the compound to promote polymerization of tubulin, expressed as percentage of the activity of paclitaxel (tubulin): a (key: a > 70%; b = 30-70%; c < 40%); EC50 (tumor cell lines): 10 to 500 nM
CC(=O)OC12COC1CC(O)C1(C)C(=O)C(OC(=O)n3cnc4ccccc43)C3=C(C)C(OC(=O)C(O)C(NC(=O)c4ccccc4)c4ccccc4)CC(O)(C(OC(=O)c4ccccc4)C21)C3(C)C (centres unmarked) [Compound 8, 10-O-deacetyl-paclitaxel-10-O-carbonyl-N-benzimidazole]	b (b = 30-70%)	–	–
CC(=O)OC12COC1CC(O)C1(C)C(=O)C(OC(=O)NCC(=O)O)C3=C(C)C(OC(=O)C(O)C(NC(=O)c4ccccc4)c4ccccc4)CC(O)(C(OC(=O)c4ccccc4)C21)C3(C)C (centres unmarked) [Compound 12, PXL-10Ca-Gly-OH]	–	–	EC50 (tumor cell lines): > 500 nM; Rhodamine 123 uptake (Pgp): a (a < 0.25)
CC(=O)OC12COC1CC(O)C1(C)C(=O)C(OC(=O)N(C)CC(=O)O)C3=C(C)C(OC(=O)C(O)C(NC(=O)c4ccccc4)c4ccccc4)CC(O)(C(OC(=O)c4ccccc4)C21)C3(C)C (centres unmarked) [Compound 13, PXL-10Ca-Sar-OH]	–	> 500	Rhodamine 123 uptake (Pgp): b (b = >0.25)
COC(=O)C(C)NC(=O)OC1C(=O)C2(C)C(O)CC3OCC3(OC(C)=O)C2C(OC(=O)c2ccccc2)C2(O)CC(OC(=O)C(O)C(NC(=O)c3ccccc3)c3ccccc3)C(C)=C1C2(C)C (centres unmarked) [Compound 39, PXL-10Ca-alanine-Me-ester]	–	–	EC50 (tumor cell lines): < 10 nM
CC(=O)O[C@H]1C(=O)[C@@]2(C)[C@H]([C@H](OC(=O)c3ccccc3)[C@]3(O)C[C@H](OC(=O)[C@H](O)[C@@H](NC(=O)c4ccccc4)c4ccccc4)C(C)=C1C3(C)C)[C@]1(OC(C)=O)CO[C@@H]1C[C@@H]2O [PXL, Paclitaxel, reference compound]	–	–	effect on rhodamine uptake (in words) (Pgp): higher rhodamine uptake; Rhodamine 123 uptake (Pgp): b (b = >0.25)
PXL-10Ca-Glu	–	10 to 500	–
PXL-10Ca-Glucosamine [Compound 5]	a (a > 70%)	> 500	–
PXL-10Ca-Gly(tBu) [Compound 14]	b (b = 30-70%)	10 to 500	Rhodamine 123 uptake (Pgp): b (b = >0.25)
PXL-10Ca-Gly-N(Me)2 [Compound 15]	–	10 to 500	Rhodamine 123 uptake (Pgp): a (a < 0.25)
PXL-10Ca-H-Lys-OH [Compound 20]	a (a > 70%)	> 500	–
PXL-10Ca-N-methyl-N-butylamine [Compound 22]	a (a > 70%)	< 10	–
PXL-10Ca-PEG6000-10Ca-PXL [Compound 29]	a (a > 70%)	–	–
PXL-10Ca-PEG(14)-COOH [Compound 25]	a (a > 70%)	> 500	–
PXL-10Ca-PEG(29)-VBL [Compound 28]	–	10 to 500	MPA: ability of the compound to promote polymerization of tubulin, expressed as percentage of the activity of paclitaxel (tubulin; relative to paclitaxel, given as number): 40%
PXL-10Ca-Ph-acetic acid [Compound 10]	a (a > 70%)	> 500	–
PXL-10Ca-Z-Lys-OH [Compound 19]	a (a > 70%)	> 500	–
PXL-10Ca-aniline [Compound 9]	b (b = 30-70%)	10 to 500	–
PXL-10Ca-di-Et-amine [Compound 23]	c (c < 40%)	10 to 500	–
PXL-10Ca-p-NO2-aniline [Compound 18]	b (b = 30-70%)	10 to 500	–
PXL-10Ca-piperidine [Compound 6]	b (b = 30-70%)	< 10	–
PXL-10CaSpermine [Compound 16]	a (a > 70%)	–	EC50 (tumor cell lines): > 500 nM

Source: patent publication US8138361B2, “C-10 carbamates of taxanes” (The Trustees Of The University Of Pennsylvania, priority 2005, dated 2012)
